In patent US7531195B2, “Schisandrin B preparation” (priority 2005, dated 2009):

Tested on: Hsp25
Assay: Tissue Hsp25 level in young female rats (Western blot)
Assay type: in vivo, rat
Conditions: 10 mg/kg daily, 15 days
Experimental: Female Sprague-Dawley rats (8 weeks old) were maintained under a 12-h dark/light cycle at about 22° C. and allowed food and water ad libitum. Drug treated animals received a daily bolus dose of (−) Schisandrin B, α-lipoic acid (α-LA) or α-tocopherol (α-Toc) at 10, 5 and 70 mg/kg, respectively, for 15 days. The dosages were determined with reference to the equivalent amount of crude herb prescribed for human or the daily recommended intake in health supplements. The control animals received olive oil only. Twenty-four hours after the last dose, the pentobarbital-anesthetized animals were sacrificed by cardiac excision, and brain. heart, liver and skeletal muscle tissues were obtained.
Hsp25 and Hsp70 levels was estimated by Western blot analysis using specific antibodies (anti-Hsp25, catalog #SPA-801; anti-Hsp70, catalog #SPA-812) from StressGen (Vancouver, BC, Canada) following SDS-PAGE analysis of the nuclear-free tissue homogenates, using a separating gel of 10% acrylamide as described in Ip et. al. (2001). Hsp25/27 and Hsp70 (human recombinant proteins from StressGen) and actin (bovine muscle from Sigma) were used as markers for reference. […] All immuno-blots were analyzed by densitometry, and the amounts (arbitrary units) of Hsp were normalized with reference to actin levels (arbitrary units) in the sample.

## COc1cc2c(c(OC)c1OC)-c1c(cc3c(c1OC)OCO3)CC(C)C(C)C2 (single isomer, unassigned; (-)) [(−) Sch B, (−) Schisandrin B]
  changes in Hsp25 level in all tissues: No detectable changes
BRAIN
  Heat Shock Protein Level, Hsp25: 0.16 ± 0.01 AU
HEART
  Heat Shock Protein Level, Hsp25: 0.77 ± 0.05 AU
LIVER
  Heat Shock Protein Level, Hsp25: 0.41 ± 0.02 AU
SKELETAL MUSCLE
  Heat Shock Protein Level, Hsp25: 0.59 ± 0.03 AU
